The source of these data is patent US20160089545A1, “METHODS AND APPARATUS FOR DELIVERY OF MOLECULES ACROSS LAYERS OF TISSUE” (EP Technologies LLC, priority 2013, published 2016).

Molecules are shown by their SMILES. Where two headings read alike, the source gives them in different places.

Description: In this example, a vertical Franz diffusion apparatus (PermeGear Inc, PA) was used for all transport studies. Human skin samples with intact stratum corneum (SC) from back and thigh region were used, which were split thickness (dermatome 250 μm). The skin was kept at −80° C. until the day of treatment. On the day of treatment the skin was thawed to room temperature and kept in a humidified box for 1 hour. The skin was washed with water and pat-dried with paper towels. The skin was cut in to 1″×1″ pieces and was placed between the donor and receiver compartments with temperature maintained at 37±1° C. using water circulator. Effective surface area for transport studies were kept constant at 1.77 cm^2. The receiver compartment was filled with 10 mL of freshly prepared phosphate buffered saline (PBS) (pH 7.4) and donor compartment with 0.5-1.0 mL of permeant solution. One mL samples were withdrawn from the receiver compartment at pre-determined time points and estimated for propofol using high performance liquid chromatography.
In vitro permeation studies were carried out using the experimental setup described above. Drugs reconstituted in water or buffer at 10 mg/mL concentration in the donor compartment was used for transport studies across the human skin, Permeation studies were carried out for a period of 3-6 h and samples were analyzed for using HPLC technique.
In some experiments, the human skin was treated with non-thermal DBD plasma for periods of time up to about 1 min and the following plasma power source parameters were varied: the frequency (Hz) was varied between about 100 and about 3500 Hz, the voltage was varied from about 11 kV to 20 kV, the pulse duration was varied between about 1 and about 10 μs, the duty cycle was varied between about 1 to about 100%, and the time of treatment ranged from between about 0.5 to about 1 minutes. […] Three different runs were carried out, the first in which the plasma generator was operated with a frequency of 2500 Hz, pulse duration of 1 μs, voltage of 15 kV and 100% duty cycle (which corresponds to setting 7100 in FIG. 10), the second with the plasma generator operated with a frequency of 2500 Hz, pulse duration of 5 μs, voltage of 17 kV and 100% duty cycle (which corresponds to setting 7500 in FIG. 10), and the third with the plasma generator operated with frequency of 3500 Hz, pulse duration of 5 μs, voltage of 19 kV and 100% duty cycle (which corresponds to setting 9500 in FIG. 10). A fourth control run was also carried out in which the skin sample was not subjected to plasma treatment before being contacted with the nicotine-containing test formulation.

As for `Cn1c(=O)c2c(ncn2C)n(C)c1=O` [caffeine], the “factor of enhancement of transdermal delivery as compared with the control” value (human, 4 h, 10 mg/mL, pH 7.4) is “approximately 7”.

As for `O=C(O)Cc1ccccc1Nc1c(Cl)cccc1Cl` [diclofenac sodium], the “factor of enhancement of transdermal delivery” value runs as follows: (human, 4 h, 10 mg/mL, pH 7.4) “approximately 2”; (human, 4 h, pH 7.4) “about 4”.

On to `CN1CCCC1c1cccnc1` (stereo not shown) [nicotine], for which the “factor of enhancement of transdermal delivery as compared with the control” value (3 hour permeation period, 3500 Hz, pulse duration 5 μs, 19 kV, 100% duty cycle (setting 9500)) is reported as “approximately 33”.
